Measured values taken from patent US12492173B2, “Herbicidal substituted N-tetrazolyl aryl carboxamides” (Bayer Aktiengesellschaft, priority 2019, dated 2025).

Key:
Format in all cases: in vivo
Polygonum convolvulus = experiment: Post-emergence herbicidal action, POLCO
Outline: (§1)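 WP or EC formulations, diluted in water at 600 to 800 l/ha with 0.2% wetting agent, are sprayed onto green parts of one-leaf-stage plants grown in sandy loam. Visual assessment of percent damage relative to untreated controls follows after approximately 3 weeks in the greenhouse.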

Veronica persica = experiment: Pre-emergence herbicidal action, VERPE; set-up: key to Herbicidal action against VERPE: % activity: 100 = plants have died, 0 = like control plants; conditions: for herbicidal activity VERPE: scored visually after 3 weeks vs untreated controls (100% = plants have died); for Herbicidal action against VERPE: comparative experiment
Outline: (§2)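 Pre-emergence, sandy loam soil; WP/EC formulation applied to covering soil surface, 600–800 l/ha water + 0.2% wetter; greenhouse, 3 wk; visual % damage vs untreated (0–100%).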

Abutilon theophrasti = experiment: Pre-emergence herbicidal action, ABUTH; set-up: key to Herbicidal action against ABUTH: % activity: 100 = plants have died, 0 = like control plants; conditions: for herbicidal activity ABUTH: scored visually after 3 weeks vs untreated controls (100% = plants have died); for Herbicidal action against ABUTH: comparative experiment
Outline: as §2

Viola tricolor = experiment: Post-emergence herbicidal action, VIOTR; set-up: key: % herbicidal action vs untreated; 100 = plants died, 0 = like control; conditions: for Herbicidal action against VIOTR: comparative experiment, 20 g of a.i./ha
Outline: as §1

Amaranthus retroflexus = experiment: Post-emergence herbicidal action, AMARE; set-up: key: % herbicidal action vs untreated; 100 = plants died, 0 = like control; conditions: for Herbicidal action against AMARE: comparative experiment
Outline: as §1

Stellaria media = experiment: Post-emergence herbicidal action, STEME; set-up: key: % herbicidal action vs untreated; 100 = plants died, 0 = like control; conditions: for Herbicidal action against STEME: comparative experiment
Outline: as §1

[1] = post-emergence, 20 g of a.i./ha

SMILES	herbicidal action POLCO (Polygonum convolvulus; post-emergence, dosage 80 g/ha)	herbicidal activity VERPE (Veronica persica; dosage 320 g/ha)	herbicidal activity ABUTH (Abutilon theophrasti; dosage 320 g/ha)	herbicidal action VIOTR (Viola tricolor; post-emergence, dosage 80 g/ha)	herbicidal action AMARE (Amaranthus retroflexus; post-emergence, dosage 80 g/ha)	herbicidal action STEME (Stellaria media; post-emergence, dosage 80 g/ha)	herbicidal action POLCO (Polygonum convolvulus; Dosage 80 g/ha)	herbicidal action VIOTR (Viola tricolor; Dosage 80 g/ha)	herbicidal action AMARE (Amaranthus retroflexus; Dosage 80 g/ha)	herbicidal action STEME (Stellaria media; Dosage 80 g/ha)	further results
Cn1nnnc1NC(=O)c1ccc(C(F)(F)F)c(C[S+]([O-])C2CC2)c1Cl (racemic) [Example 1-303]	100%	100%	100%	100%	100%	100%					
COCC[S+]([O-])Cc1c(C(F)(F)F)ccc(C(=O)Nc2nnnn2C)c1Cl (racemic) [Example 1-306]		90%	100%				90	100	100	90	
Cn1nnnc1NC(=O)c1ccc(C(F)(F)F)c(C[S+]([O-])CC(F)(F)F)c1Cl (racemic) [Example 1-312]	100%	100%	100%	100%	100%	100%					
CC[S+]([O-])Cc1c(C(F)(F)F)ccc(C(=O)Nc2nnnn2C)c1Br (racemic) [Example 1-384]	90%	100%	100%	100%	90%	90%					Herbicidal action against ABUTH (Abutilon theophrasti; 80 g of a.i./ha): 100; Herbicidal action against VIOTR (Viola tricolor; post-emergence): 100; Herbicidal action against AMARE (Amaranthus retroflexus; [1]): 90
CSCc1c(C(F)(F)F)ccc(C(=O)Nc2nnnn2C)c1C [Example 1-83]	90%	100%	100%	90%	100%	100%					
CCS(=O)(=O)Cc1c(C(F)(F)F)ccc(C(=O)Nc2nnnn2C)c1C [Example 1-88]							90	100	90	100	herbicidal action VERPE (Veronica persica; dosage 320 g/ha): 100%; herbicidal action ABUTH (Abutilon theophrasti; dosage 320 g/ha): 100%
CSc1c(C(=O)Nc2nnnn2C)ccc(C(F)(F)F)c1C[S+](C)[O-] (stereo not shown) [Example 1-162]	90%	90%	100%	100%	100%	100%					Herbicidal action against ABUTH (Abutilon theophrasti; 20 g of a.i./ha): 100
CSc1c(C(=O)Nc2nnnn2C)ccc(C(F)F)c1C[S+](C)[O-] (stereo not shown) [Example 1-171]		100%	100%				100	90	100	100	
CCSCc1c(C(F)(F)F)ccc(C(=O)Nc2nnnn2C)c1Cl [Example 1-299]	80%	100%	100%	100%	100%	100%					Herbicidal action against POLCO (Polygonum convolvulus; comparative experiment, post-emergence, 5 g of a.i./ha): 60; Herbicidal action against VERPE (Veronica persica; 20 g of a.i./ha): 100; Herbicidal action against ABUTH (Abutilon theophrasti; 20 g of a.i./ha): 90; Herbicidal action against STEME (Stellaria media; post-emergence, 5 g of a.i./ha): 100
Cn1nnnc1NC(=O)c1ccc(C(F)(F)F)c(CSC2CC2)c1Cl [Example 1-302]	100%	100%	100%	100%	100%	100%					
Cn1nnnc1NC(=O)c1ccc(C(F)(F)F)c(CS(=O)(=O)C2CC2)c1Cl [Example 1-304]	100%	100%	100%	100%	100%	100%					
COCCSCc1c(C(F)(F)F)ccc(C(=O)Nc2nnnn2C)c1Cl [Example 1-305]	100%	100%	100%	100%	100%	100%					
Cn1nnnc1NC(=O)c1ccc(C(F)(F)F)c(CSCC2CC2)c1Cl [Example 1-314]	100%	100%	100%	100%	100%	100%					
Cn1nnnc1NC(=O)c1ccc(C(F)(F)F)c(CS(=O)(=O)CC2CC2)c1Cl [Example 1-316]		100%	100%				100	100	100	100	
CSCc1c(C(F)F)ccc(C(=O)Nc2nnnn2C)c1Cl [Example 1-320]		100%	100%				80	100	100	100	Herbicidal action against ABUTH (Abutilon theophrasti; 20 g of a.i./ha): 90; Herbicidal action against AMARE (Amaranthus retroflexus; post-emergence, 5 g of a.i./ha): 100; Herbicidal action against STEME (Stellaria media; post-emergence, 5 g of a.i./ha): 100
Cn1nnnc1NC(=O)c1ccc(C(F)F)c(CS(C)(=O)=O)c1Cl [Example 1-322]	90%	100%	100%	100%	80%	100%					
CCSCc1c(C(F)F)ccc(C(=O)Nc2nnnn2C)c1Cl [Example 1-323]	90%	100%	100%	100%	90%	100%					
CSCc1c(I)ccc(C(=O)Nc2nnnn2C)c1Cl [Example 1-362]	90%	100%	100%	100%	100%	100%					Herbicidal action against VERPE (Veronica persica; 20 g of a.i./ha): 60; Herbicidal action against AMARE (Amaranthus retroflexus; post-emergence, 5 g of a.i./ha): 100; Herbicidal action against STEME (Stellaria media; post-emergence, 5 g of a.i./ha): 90
Cn1nnnc1NC(=O)c1ccc(I)c(CS(C)(=O)=O)c1Cl [Example 1-364]		100%	100%				100	100	100	100	Herbicidal action against VERPE (Veronica persica; 20 g of a.i./ha): 100
CCSCc1c(C(F)(F)F)ccc(C(=O)Nc2nnnn2C)c1Br [Example 1-383]	90%	100%	100%	100%	90%	100%					Herbicidal action against VERPE (Veronica persica; 80 g of a.i./ha): 100; Herbicidal action against ABUTH (Abutilon theophrasti; 80 g of a.i./ha): 100; Herbicidal action against VIOTR (Viola tricolor; post-emergence): 100; Herbicidal action against STEME (Stellaria media; [1]): 100
